Source: patent US7767665B2, “1,3-benzothiazinone derivatives and use thereof” (Takeda Pharmaceutical Company Limited, priority 2001, dated 2010)

Compound | melting point
CC(C)(C)OC(=O)CCc1cccc(-c2nc(=O)c3ccc(F)cc3s2)n1 [Example 181, tert-Butyl 3-[6-(7-fluoro-4-oxo-4H-1,3-benzothiazin-2-yl)-2-pyridyl]propanoate] | 158.5 to 159.5 °C
Cc1ccc(Sc2cccc(-c3nc(=O)c4ccccc4s3)n2)cc1 [Example 46, 2-{6-[(4-methylphenyl)thio]-2-pyridyl}-4H-1,3-benzothiazine-4-one] | 176.9 to 178.4 °C
Cc1cc(CCC(=O)OC(C)(C)C)cc(-c2nc(=O)c3ccc(Cl)cc3s2)n1 [Example 320, tert-Butyl 3-[2-(7-chloro-4-oxo-4H-1,3-benzothiazin-2-yl)-6-methyl-4-pyridyl]propanoate] | 186.4 to 187.6 °C
O=c1nc(-c2cccc(-c3ccccn3)n2)sc2ccccc12 [Example 199, 2-[6-(2,2′-Bipyridyl)]-4H-1,3-benzothiazine-4-one] | 222.1 to 223.9 °C
O=c1nc(-c2cccc(-c3ccco3)n2)sc2ccccc12 [Example 194, 2-[6-(2-Furyl)-2-pyridyl]-4H-1,3-benzothiazine-4-one] | 217.9 to 218.4 °C
C[S+]([O-])c1cc(CCC(=O)OC(C)(C)C)cc(-c2nc(=O)c3ccccc3s2)n1 (stereo not drawn) [Example 343, tert-Butyl 3-[2-(methylsulfinyl)-6-(4-oxo-4H-1,3-benzothiazin-2-yl)-4-pyridyl]propanoate] | 219.5 to 220 °C
O=c1nc(-c2cccs2)sc2ccccc12 [Example 2, 2-(2-Thienyl)-4H-1,3-benzothiazine-4-one] | 157.7 to 158.2 °C
O=c1nc(-c2ccccn2)sc2ccc(OCCCc3ccccc3)cc12 [Example 120, 6-(3-Phenylpropoxy)-2-(2-pyridyl)-4H-1,3-benzothiazine-4-one] | 170 to 170.3 °C
COc1ccc(-c2cccc(-c3nc(=O)c4ccccc4s3)n2)cc1 [Example 198, 2-[6-(4-Methoxyphenyl)-2-pyridyl]-4H-1,3-benzothiazine-4-one] | 200.1 to 201.1 °C
CC(C)(C)[S+]([O-])c1cccc(-c2nc(=O)c3ccccc3s2)n1 (stereo not drawn) [Example 153, 2-[6-(tert-Butylsulfinyl)-2-pyridyl]-4H-1,3-benzothiazine-4-one] | 180.5 °C (dec.)
CC(C)(C)OC(=O)CNc1nccc(-c2nc(=O)c3ccccc3s2)n1 [Example 295, tert-Butyl {[6-(4-oxo-4H-1,3-benzothiazin-2-yl)-2-pyrimidinyl]amino}acetate] | 247 to 248 °C
Cc1cccc2c(=O)nc(-c3ccccn3)sc12 [Example 12, 8-Methyl-2-(2-pyridyl)-4H-1,3-benzothiazine-4-one] | 197.8 to 198.5 °C
O=c1nc(-c2cccc(N3CCN(c4ccccc4)CC3)n2)sc2ccccc12 [Example 62, 2-[6-(4-Phenyl-1-piperazinyl)-2-pyridyl]-4H-1,3-benzothiazine-4-one] | 245.8 °C (dec.)
CC(C)(C)OC(=O)CCc1cccc(-c2nc(=O)c3ccc(Cl)cc3s2)n1 [Example 5, tert-Butyl 3-[6-(7-chloro-4-oxo-4H-1,3-benzothiazin-2-yl)-2-pyridyl]propanoate] | 167.9 to 168.2 °C
CN(Cc1ccccc1)c1cc(-c2nc(=O)c3ccccc3s2)ccn1 [Example 71, 2-[2-(N-Benzyl-N-methylamino)-4-pyridyl]-4H-1,3-benzothiazine-4-one] | 145.9 to 146.6 °C
O=c1nc(-c2cc(-c3ccccc3)ccn2)sc2ccccc12 [Example 137, 2-(4-Phenyl-2-pyridyl)-4H-1,3-benzothiazine-4-one] | 164.4 to 164.7 °C
CS(=O)(=O)c1cc(-c2nc(=O)c3ccccc3s2)ccn1 [Example 264, 2-[2-(Methylsulfonyl)-4-pyridyl]-4H-1,3-benzothiazine-4-one] | 189.5 to 191.5 °C
C[S+]([O-])c1cc(-c2nc(=O)c3ccccc3s2)ccn1 (stereo not drawn) [Example 263, 2-[2-(Methylsulfinyl)-4-pyridyl]-4H-1,3-benzothiazine-4-one] | 172.5 to 174 °C
O=c1nc(-c2cccc(SCc3ccccc3)n2)sc2ccccc12 [Example 159, 2-(6-Benzylthio-2-pyridyl)-4H-1,3-benzothiazine-4-one] | 227 to 228 °C
C[S+]([O-])c1cncc(-c2nc(=O)c3ccccc3s2)n1 (stereo not drawn) [Example 288, 2-[6-(Methylsulfinyl)-2-pyrazinyl]-4H-1,3-benzothiazine-4-one] | 228.5 to 230.5 °C
CCOCCOc1ccc(-c2nc(=O)c3ccccc3s2)cn1 [Example 94, 2-[6-(2-Ethoxyethoxy)-3-pyridyl]-4H-1,3-benzothiazine-4-one] | 93.6 to 94.9 °C

The remaining lines, values ahead:

melting point | Compound
247.5 to 247.8 °C | NC(=O)CCc1ccc(-c2nc(=O)c3ccccc3s2)nc1 [Example 329, 3-[6-(4-Oxo-4H-1,3-benzothiazin-2-yl)-3-pyridyl]propanamide]
216.8 to 219.3 °C | O=C(NCCc1ccnc(-c2nc(=O)c3ccccc3s2)c1)c1ccccc1 [Example 225, N-[2-[2-(4-Oxo-4H-1,3-benzothiazin-2-yl)-4-pyridyl]ethyl]benzamide]
236.6 to 236.7 °C | O=C(O)CCOCCc1cccc(-c2nc(=O)c3ccccc3s2)n1 [Example 335, 3-[2-(6-(4-Oxo-4H-1,3-benzothiazin-2-yl)-2-pyridyl)ethoxy]propionic acid]
84.7 to 84.9 °C | CC(C)(C)OC(=O)CCOCc1cccc(-c2nc(=O)c3ccccc3s2)n1 [Example 336, tert-Butyl 3-[(6-(4-oxo-4H-1,3-benzothiazin-2-yl)-2-pyridyl)methoxy]propanoate]
269.5 to 270 °C | CS(=O)(=O)c1nccc(-c2nc(=O)c3ccccc3s2)n1 [Example 286, 2-[2-(Methylsulfonyl)-6-pyrimidinyl]-4H-1,3-benzothiazine-4-one]
145.5 to 146 °C | O=c1nc(-c2cccc(CCCO)n2)sc2ccccc12 [Example 302, 2-[6-(3-Hydroxypropyl)-2-pyridyl]-4H-1,3-benzothiazine-4-one]
199 to 199.8 °C | CCC(=O)NCc1cccc(-c2nc(=O)c3ccccc3s2)n1 [Example 205, N-[[6-(4-Oxo-4H-1,3-benzothiazin-2-yl)-2-pyridyl]methyl]propanamide]
313.3 to 315 °C | O=c1nc(-c2ccccn2)sc2ccc(O)cc12 [Example 84, 6-Hydroxy-2-(2-pyridyl)-4H-1,3-benzothiazine-4-one]
108 to 110 °C | COC(=O)CSCc1cccc(-c2nc(=O)c3ccccc3s2)n1 [Example 258, Methyl ({[6-(4-oxo-4H-1,3-benzothiazin-2-yl)-2-pyridyl]methyl}thio)acetate]
150.5 to 150.9 °C | CCc1cccc(-c2nc(=O)c3ccccc3s2)n1 [Example 140, 2-(6-Ethyl-2-pyridyl)-4H-1,3-benzothiazine-4-one]
73.6 to 73.9 °C | CCOC(=O)CCCCCOc1ccc(-c2nc(=O)c3ccccc3s2)cn1 [Example 96, Ethyl 6-{[5-(4-oxo-4H-1,3-benzothiazin-2-yl)-2-pyridyl]oxy}hexanoate]
87 to 88 °C | CCOC(=O)CCCCc1cccc(-c2nc(=O)c3ccccc3s2)n1 [Example 303, Ethyl 5-[6-(4-oxo-4H-1,3-benzothiazin-2-yl)-2-pyridyl]valerate]
148.6 to 150.6 °C | O=C(O)CCCCCCc1cccc(-c2nc(=O)c3ccccc3s2)n1 [Example 307, 7-[6-(4-Oxo-4H-1,3-benzothiazin-2-yl)-2-pyridyl]heptanoic acid]
200.6 to 201.2 °C | CCC(=O)N(C)c1cccc(-c2nc(=O)c3ccccc3s2)n1 [Example 114, N-Methyl-N-[6-(4-oxo-4H-1,3-benzothiazin-2-yl)-2-pyridyl]propanamide]
215.3 to 215.9 °C | O=C(O)CCc1ccnc(-c2nc(=O)c3ccccc3s2)c1 [Example 308, 3-[2-(4-Oxo-4H-1,3-benzothiazin-2-yl)-4-pyridyl]propionic acid]
142 to 143.5 °C | CCSCc1cccc(-c2nc(=O)c3ccccc3s2)n1 [Example 249, 2-[6-[(Ethylthio)methyl]-2-pyridyl]-4H-1,3-benzothiazine-4-one]
232.2 to 232.4 °C | O=C(O)CCc1ccc(-c2nc(=O)c3ccccc3s2)nc1 [Example 328, 3-[6-(4-Oxo-4H-1,3-benzothiazin-2-yl)-3-pyridyl]propionic acid]
125.5 to 126.5 °C | CSc1cc(CCC(=O)OC(C)(C)C)cc(-c2nc(=O)c3ccccc3s2)n1 [Example 341, tert-Butyl 3-[2-(methylthio)-6-(4-oxo-4H-1,3-benzothiazin-2-yl)-4-pyridyl]propanoate]
213.8 to 215.2 °C | O=C(NCCO)c1cccc(-c2nc(=O)c3ccccc3s2)n1 [Example 201, N-(2-Hydroxyethyl)-6-(4-oxo-4H-1,3-benzothiazin-2-yl)-2-pyridinecarboxamide]
201.5 to 203 °C | CCS(=O)(=O)c1cccc(-c2nc(=O)c3ccccc3s2)n1 [Example 150, 2-[6-(Ethylsulfonyl)-2-pyridyl]-4H-1,3-benzothiazine-4-one]
205 to 207 °C | CS(=O)(=O)c1ccc(-c2nc(=O)c3ccccc3s2)cn1 [Example 262, 2-[6-(Methylsulfonyl)-3-pyridyl]-4H-1,3-benzothiazine-4-one]
